Here are results for one compound from patent publication US9849212B2, “Implants for inducing soft and hard tissue integration” (NUMAT BIOMEDICAL S.L., priority 2013, dated 2017).

Holding throughout (assay type): physicochemical
Data set [1] can be described thus: Biomolecule release by UV-vis spectrometry after 24 h incubation in water. The following applies: covalent linking via APTES, water pH 7.5, 37° C. The method, then:
The biomolecule release from functionalized implants after 24 h incubation in water at pH 7.5 and 37° C. was determined by UV-Vis spectroscopy. Implants were placed in a 96 well plate and 200 μl of water at pH 7.5 were added to each well. Samples were incubated at 37° C. during 24 h. Then, a 150 μl aliquot was withdrawn and the absorbance (λmax taxifolin=290 nm, λmax quercitrin=350 nm) was measured using a Biotek UV-vis plate reader spectrophotometer. Two sample replicates were measured.

A short description of data set [2]: Flavonoid release profile by UV-Vis spectroscopy, simulating HGF culture media changes. Conditions: water pH 7.5, 37° C. As for the experimental part:
(§1) The flavonoid release profile from coated surfaces in water media, simulating physiologic conditions (pH 7.5, 37° C.) was measured by UV-Vis spectroscopy. Implants were placed in a 96 well plate and 200 μl of water at pH 7.5 were added to each well. […] Each time, a 150 μl aliquot was withdrawn and the absorbance (λTaxifolin=290 nm, λQuercitrin=350 nm) was measured in a 96 well Elisa plate using a Biotek UV-vis plate reader spectrophotometer. The concentration of flavonoid was calculated from interpolation of data in flavonoid standard calibration curves. Two replicates were measured for each sample. Passivated Ti substrates were used as blank samples for drop casted implants. Silanized Ti substrates were used as blank for covalently linked samples.

A short description of data set [3]: Flavonoid release profile by UV-Vis spectroscopy, simulating hUC-MSCs culture media changes. Conditions: water pH 7.5, 37° C. As for the experimental part: as §1
Where [4] appears, read: Schiff base, not reduced (experiment FL14).

Regarding `O=C1c2c(O)cc(O)cc2O[C@H](c2ccc(O)c(O)c2)[C@H]1O` [TX, taxifolin], the “C μM, 24 h (release of flavonoid to water media)” value in data set [1] (Ti pretreat. UV, reduction step No (Schiff base)) is 5.06 ± 0.59 µM; in data set [1] (Ti pretreat. UV, reduction step Yes (reduced Schiff base)), “No det”; in data set [1] (Ti pretreat. passivation, reduction step No (Schiff base)), 10.22 ± 1.88 µM; in data set [1] (Ti pretreat. passivation, reduction step Yes (reduced Schiff base)) it was “No det”. The “cumulative release at day one” value in data set [2] (setting [4]) was 12.4 ± 4.0 nmol. Moreover, the “released amount from 1 to 14 days” value in data set [2] (setting [4]) is given as “not significant”. Further, the “flavonoid released to the media after 1 h of incubation” value in data set [2] (covalently linked by Schiff base formation, not reduced (experiment FL14)) is 7.9 ± 2.7 nmol; in data set [2] (drop casted substrates (experiment FL13), initial 6 nmol/disk taxifolin, 100 nmol/disk quercitrin) it was around 3.2 ± 0.4 nmol. The “completeness of release at day 1” value in data set [2] (drop casted substrates (experiment FL13), 6 nmol/disk taxifolin) is “almost complete”. Besides, the “flavonoid detected in the media” value was “No taxifolin neither quercitrin were detected” in data set [2] (reduced Schiff base surfaces (experiment FL15), up to 14 days) and “No taxifolin neither quercitrin were detected” in data set [3] (reduced Schiff base surfaces (experiment FL18), up to 14 days). In addition, in data set [3] (Schiff base, not reduced (experiment FL17)), the “total amount released after 14 days” value was 2.6 ± 0.2 nmol. Moreover, the “total amount released to media” value in data set [3] (drop casted substrates (experiment FL16), initial 20 nmol/disk taxifolin, 50 nmol/disk quercitrin, up to 14 days) was 19.7 ± 0.7 nmol.
